Data set [1] is described as follows: Dissociation constant, pKa. Particulars: pH 7.4.
Data set [2] deals with ECV-304. As to the kind of experiment: Antiproliferative activity against human ECV304 cells. The data set is classed as functional, cell-based.
Data set [3] can be described thus: Solubility of the compound.
Another data set concerns A549. As to the kind of experiment: Antiproliferative activity against human A549 cells. The data set is classed as functional, cell-based.
A further data set in a line: Polar surface area. Particulars: pH 7.4.
The subject of data set [4] is Caco-2. Put plainly: Antiproliferative activity against human Caco-2 cells. The data set is classed as functional, cell-based.
The nature of data set [5]: Ratio of solubility for drug to taspine. The data set is classed as physicochemical.
The subject of data set [6] is ECV-304. Put plainly: Ratio of IC50 drug to IC50 taspine against human ECV304 cells. Type of data set: functional.
In data set [7] the test system is Caco-2. Put plainly: Ratio of IC50 drug to IC50 taspine against human Caco-2 cells. Type of data set: functional.

In brackets after ≈: the same amount, converted by molar mass.

The molecule `COC(=O)c1cc(OC(=O)c2ccc(OC)c(O)c2)c(OC)cc1CCNc1ccc(F)c(Cl)c1` showed a pKa in data set [1] of 3.65. Also, the IC50 in the data set with ECV-304 [2] was found to be 61 nM; in the data set with A549, 180 nM. Moreover, the solubility in [3] worked out at 61 µg/mL (≈ 121 µM). In the data set “Polar surface area”, this molecule yielded a PSA of 103 Å2.
For `COC(=O)c1ccc(OC)c(OC(=O)c2cc(O)c(OC)cc2CCN(C)C)c1`, the pKa in data set [1] was 8.57. For the same molecule, the results for the IC50 in the data set with Caco-2 [4] and in the data set with A549 were 3100 nM and 111 nM, respectively. The same molecule returned a solubility in data set [3] of 130 µg/mL (≈ 322 µM). The PSA in “Polar surface area” is 94.5 Å2.
Molecule `COC(=O)c1cc(OC(=O)c2ccc(OC)c(O)c2)c(OC)cc1CCN(C)C` displayed a pKa in [1] of 8.75. The half-inhibitory concentration (IC50) in the data set on Caco-2 [4] was determined as 11000 nM; with A549, 453 nM. Further, the solubility in [3] came out at 140 µg/mL (≈ 347 µM). This molecule also registered a PSA in the data set “Polar surface area” of 94.5 Å2. In data set [5], the Ratio came to 13.
As to `COC(=O)c1cc(OC(=O)c2ccc(OC)c(O)c2)c(OC)cc1CCN1CCOCC1`, the pKa in data set [1] turned out to be 7.28. The IC50 in the data set with Caco-2 [4] turned out to be 52.5 nM; in the data set on ECV-304 [2] it was 2.67 nM; in the data set on A549 it was 158 nM. In data set [3], the concentration in solution (solubility) came to 270 µg/mL (≈ 606 µM). For the same molecule, the “Ratio IC50” value is 10 in the data set on ECV-304 [6] and 3 in the data set with Caco-2 [7]. For the same molecule, the PSA in the data set “Polar surface area” was found to be 104 Å2. Moreover, the Ratio in [5] was determined as 13.
In turn, `COc1ccc2c(=O)oc3c(OC)cc(CCN(C)C)c4c(=O)oc1c2c34` [TASPINE] returned a pKa in [1] of 8.21. Moreover, the half-inhibitory concentration (IC50) in the data set on Caco-2 [4] was found to be 153 nM; with ECV-304 [2] it was 22.3 nM; with A549, 4.18 nM. Besides, the solubility in data set [3] stood at 21 µg/mL (≈ 56.9 µM). Also, the PSA in “Polar surface area” was 74.3 Å2.

Values taken from ChEMBL document CHEMBL1153246, “Discovery of novel taspine derivatives as antiangiogenic agents” (Bioorg Med Chem Lett, 2010).
